Measured values from patent publication US4539322A, “Dihydropyridine derivatives and their use in treating heart conditions and hypertension” (Pfizer Inc., priority 1982, dated 1985).
pIC50: −log10 of the molar value. Where a name gives a salt, the structure may show the parent alone.

system: rat aorta; test: Inhibition of calcium-induced contraction of isolated rat aorta strips (reduction of response to added calcium chloride in K+-containing saline); assay type: cell-based; conditions: 0.75 h; spirally cut rat aorta strips, 45 millimolar potassium, calcium 2 millimolar, test repeated with compound after 45 minutes; read-out: molar concentration of the compounds required to reduce the response by 50% (IC50)
Description: The ability of the compounds to inhibit the movement of calcium into the cell is shown by their effectiveness in reducing the response of isolated heart tissue to an increase in calcium ion concentration in vitro. The test is performed by mounting spirally cut strips of rat aorta with one end fixed and the other attached to a force transducer. The tissue is immersed in a bath of physiological saline solution containing potassium ion s at a concentration of 45 millimolar and no calcium. Calcium chloride is added to the bath with a pipette to give a final calcium ion concentration of 2 millimolar. The change in tension caused by the resulting contraction of the tissue is noted. The bath is drained and replaced with fresh saline solution and, after 45 minutes, the test is repeated with the particular compound under test present in the saline solution. The concentration of compound required to reduce the response by 50% is recorded.

| SMILES | pIC50 |
| --- | --- |
| CCOC(=O)C1=C(COCC(C)(C)N2CCNCC2)NC(C)=C(C(=O)OC)C1c1ccccc1Cl (centres unmarked) [Example 56] | 6.47 |
| CCOC(=O)C1=C(COCCN2CCN(S(=O)(=O)N(C)C)CC2)NC(C)=C(C(=O)OC)C1c1ccccc1Cl (centres unmarked) [Example 42] | 7.31 |
| CCOC(=O)C1=C(COCCN2CCN(C(=O)NC)CC2)NC(C)=C(C(=O)OC)C1c1cc(Cl)cc(Cl)c1 (centres unmarked) [Example 32] | 7.30 |
| CCOC(=O)C1=C(COCCN2CCN(C(=O)NC)CC2)NC(C)=C(C(=O)OC)C1c1cccc(Cl)c1 (centres unmarked) [Example 34] | 7.75 |
| CCOC(=O)C1=C(COCCN2CCN(C(=NC#N)NCCN(C)C)CC2)NC(C)=C(C(=O)OC)C1c1ccccc1Cl (centres unmarked) [Example 6] | 7.00 |
| CCOC(=O)C1=C(COCC(C)N2CCN(C(=O)NC(C)C)CC2)NC(C)=C(C(=O)OC)C1c1ccccc1Cl (centres unmarked) [Example 28] | 8.03 |
| CCOC(=O)C1=C(COCCN2CCN(C(=NC#N)N(C)C)CC2)NC(C)=C(C(=O)OC)C1c1ccccc1Cl (centres unmarked) [Example 4] | 8.15 |
| CCOC(=O)C1=C(COCCN2CCN(C(=O)NC)CC2)NC(C)=C(C(=O)OC)C1c1nccs1 (centres unmarked) [Example 36] | 6.00 |
| CCOC(=O)C1=C(COCCN2CCN(C(=NC#N)N3CCCC3)CC2)NC(C)=C(C(=O)OC)C1c1ccccc1Cl (centres unmarked) [Example 2] | 7.85 |
| CCOC(=O)C1=C(COCC(C)N2CCN(C(=O)NC)CC2)NC(C)=C(C(=O)OC)C1c1ccccc1Cl (centres unmarked) [Example 26] | 7.87 |
| CCOC(=O)NC(=S)N1CCN(CCOCC2=C(C(=O)OCC)C(c3ccccc3Cl)C(C(=O)OC)=C(C)N2)CC1 (centres unmarked) [Example 11] | 7.86 |
| CCOC(=O)C1=C(COCCN2CCN(C(=O)N3CCOCC3)CC2)NC(C)=C(C(=O)OC)C1c1ccccc1Cl (centres unmarked) [Example 50] | 8.23 |
| CCOC(=O)C1=C(COCCN2CCN(C(=N)NC(=O)NC(C)C)CC2)NC(C)=C(C(=O)OC)C1c1ccccc1Cl (centres unmarked) [Example 64] | 7.85 |
| CCOC(=O)C1=C(COCCN2CCNCC2)NC(C)=C(C(=O)OC)C1c1ccccc1Cl (centres unmarked) [Example 55, 4-(2-chlorophenyl)-3-ethoxycarbonyl-5-methoxycarbonyl-6-methyl-2-[2-(piperazin-1-yl)ethoxymethyl]-1,4-dihydropyridine] | 6.81 |
| CCOC(=O)C1=C(COCCN2CCN(C(=NS(C)(=O)=O)NC)CC2)NC(C)=C(C(=O)OC)C1c1ccccc1Cl (centres unmarked) [Example 7] | 7.00 |
| CCOC(=O)C1=C(COCCN2CCN(S(N)(=O)=O)CC2)NC(C)=C(C(=O)OC)C1c1ccccc1Cl (centres unmarked) [Example 53, 4-(2-chlorophenyl)-3-ethoxycarbonyl-5-methoxycarbonyl-6-methyl-2-[2-(4-sulphamoylpiperazin-1-yl)ethoxymethyl]-1,4-dihydropyridine, hydrochloride hydrate] | 7.38 |
| CCOC(=O)C1=C(COCCN2CCN(C(=O)NC)CC2)NC(C)=C(C(=O)OC)C1c1c(Cl)cccc1Cl (centres unmarked) [Example 33] | 7.60 |
| CCOC(=O)C1=C(COCCN2CCN(CC(=O)Nc3c(C)cccc3C)CC2)NC(C)=C(C(=O)OC)C1c1ccccc1Cl (centres unmarked) [Example 38, 4-(2-chlorophenyl)-2-[2-[4-(N-[2,6-dimethylphenyl]carbamoylmethyl)piperazin-1-yl]ethoxymethyl]-3-ethoxycarbonyl-5-methoxycarbonyl-6-methyl-1,4-dihydropyridine] | 7.69 |
| CCOC(=O)C1=C(COCCN2CCN(C(=O)NC3CCCCC3)CC2)NC(C)=C(C(=O)OC)C1c1ccccc1Cl (centres unmarked) [Example 23] | 8.07 |
| CCOC(=O)C1=C(COCCN2CCN(C(=NC#N)NC)CC2)NC(C)=C(C(=O)OC)C1c1cccc(Cl)c1Cl (centres unmarked) [Example 9] | 7.82 |
| CCOC(=O)C1=C(COCCN2CCN(C(=O)NC)CC2)NC(C)=C(C(=O)OC)C1c1ccccc1C(F)(F)F (centres unmarked) [Example 30] | 7.96 |
| CCOC(=O)C1=C(COCCN2CCN(S(C)(=O)=O)CC2)NC(C)=C(C(=O)OC)C1c1ccccc1Cl (centres unmarked) [Example 43] | 7.80 |
| CCOC(=O)C1=C(COCCN2CCN(C(N)=O)CC2)NC(C)=C(C(=O)OC)C1c1cccc(Cl)c1Cl (centres unmarked) [Example 37] | 8.10 |
| CCNC(=O)N1CCN(C(C)COCC2=C(C(=O)OCC)C(c3ccccc3Cl)C(C(=O)OC)=C(C)N2)CC1 (centres unmarked) [Example 27] | 7.68 |
| CCOC(=O)C1=C(COCCN2CCN(C(=NC)NC#N)CC2)NC(C)=C(C(=O)OC)C1c1ccccc1Cl (centres unmarked) [Example 1, 4-(2-chlorophenyl)-2-[2-[4-(N-cyano-N'-methyl-amidino)piperazin-1-yl]ethoxymethyl]-3-ethoxycarbonyl-5-methoxy-carbonyl-6-methyl-1,4-dihydropyridine, oxalate salt] | 8.00 |

The next lines start with the values.

| pIC50 | SMILES |
| --- | --- |
| 8.52 | CCOC(=O)C1=C(COCCN2CCN(C(=O)[C@@H]3CCC(=O)N3)CC2)NC(C)=C(C(=O)OC)C1c1ccccc1Cl (stereo partly drawn) [Example 54, 4-(2-chlorophenyl)-3-ethoxycarbonyl-5-methoxycarbonyl-6-methyl-2-[2-(4-[l-5-oxo-pyrrolidin-2-ylcarbonyl]-piperazin-1-yl)ethoxymethyl]-1,4-dihydropyridine, hydrochloride hydrate] |
| 7.07 | CCOC(=O)C1=C(COCCN2CCN(C(=O)c3ccco3)CC2)NC(C)=C(C(=O)OC)C1c1ccccc1Cl (centres unmarked) [Example 44] |
| 7.98 | CCOC(=O)C1=C(COCCN2CCN(CC(N)=O)CC2)NC(C)=C(C(=O)OC)C1c1ccccc1Cl (centres unmarked) [Example 40] |
| 8.43 | CCOC(=O)C1=C(COCCN2CCN(C(N)=O)CC2)NC(C)=C(C(=O)OC)C1c1ccccc1Cl (centres unmarked) [Example 14] |
| 8.11 | CCCNC(=O)N1CCN(CCOCC2=C(C(=O)OCC)C(c3ccccc3Cl)C(C(=O)OC)=C(C)N2)CC1 (centres unmarked) [Example 25] |
| 8.00 | CCOC(=O)C(=O)N1CCN(CCOCC2=C(C(=O)OCC)C(c3ccccc3Cl)C(C(=O)OC)=C(C)N2)CC1 (centres unmarked) [Example 45] |
| 7.71 | CCOC(=O)C1=C(COCCN2CCN(C(=O)NC)CC2)NC(C)=C(C(=O)OC)C1c1ccccc1F (centres unmarked) [Example 35] |
| 7.48 | CCOC(=O)C1=C(COCCN2CCN(C(=O)Nc3ccc(C(=O)OCC)cc3)CC2)NC(C)=C(C(=O)OC)C1c1ccccc1Cl (centres unmarked) [Example 20] |
| 7.89 | CCOC(=O)C1=C(COCCN2CCN(C(=O)N(C)C)CC2)NC(C)=C(C(=O)OC)C1c1ccccc1Cl (centres unmarked) [Example 41, 4-(2-chlorophenyl)-2-[2-(4-[N,N-dimethylcarbamoyl]-piperazin-1-yl)ethoxymethyl]-3-ethoxycarbonyl-5-methoxycarbonyl-6-methyl-1,4-dihydropyridine, hydrochloride salt] |
| 8.20 | CCOC(=O)C1=C(COCCN2CCN(C(=O)COC)CC2)NC(C)=C(C(=O)OC)C1c1ccccc1Cl (centres unmarked) [Example 46] |
| 8.01 | CCOC(=O)C1=C(COCCN2CCN(C(=O)CC(C)=O)CC2)NC(C)=C(C(=O)OC)C1c1ccccc1Cl (centres unmarked) [Example 52, 2-[2-(4-acetoacetylpiperazin-1-yl)ethoxymethyl]-4-(2-chlorophenyl)-3-ethoxycarbonyl-5-methoxycarbonyl-6-methyl-1,4-dihydropyridine, hydrochloride hydrate] |
| 7.01 | CCOC(=O)CNC(=O)N1CCN(CCOCC2=C(C(=O)OCC)C(c3ccccc3Cl)C(C(=O)OC)=C(C)N2)CC1 (centres unmarked) [Example 17] |
| 7.80 | CCCCNC(=O)N1CCN(CCOCC2=C(C(=O)OCC)C(c3ccccc3Cl)C(C(=O)OC)=C(C)N2)CC1 (centres unmarked) [Example 19] |
| 6.60 | CCOC(=O)C1=C(COCCN2CCN(C(=O)NS(=O)(=O)c3ccc(C)cc3)CC2)NC(C)=C(C(=O)OC)C1c1ccccc1Cl (centres unmarked) [Example 16] |
| 8.10 | CCOC(=O)C1=C(COCCN2CCN(C=O)CC2)NC(C)=C(C(=O)OC)C1c1ccccc1Cl (centres unmarked) [Example 51, 4-(2-chlorophenyl)-3-ethoxycarbonyl-2-[2-(4-formylpiperazin-1-yl)ethoxymethyl]-5-methoxycarbonyl-6-methyl-1,4-dihydropyridine, bisoxalate salt] |
| 8.30 | CCOC(=O)C1=C(COCCN2CCN(C(=O)Nc3ccccc3)CC2)NC(C)=C(C(=O)OC)C1c1ccccc1Cl (centres unmarked) [Example 15] |
| 7.66 | CCOC(=O)C1=C(COCCN2CCN(C(=O)Nc3ccc(F)cc3)CC2)NC(C)=C(C(=O)OC)C1c1ccccc1Cl (centres unmarked) [Example 21] |
| 7.98 | CCOC(=O)C1=C(COCCN2CCN(CC(=O)OC)CC2)NC(C)=C(C(=O)OC)C1c1ccccc1Cl (centres unmarked) [Example 39] |
| 8.09 | CCOC(=O)C1=C(COCCN2CCN(C(=N)NC(=O)OC)CC2)NC(C)=C(C(=O)OC)C1c1ccccc1Cl (centres unmarked) [Example 65] |
| 7.05 | CCOC(=O)C1=C(COCCN2CCN(C(=O)NC)CC2)NC(C)=C(C(=O)OC)C1c1cccc2ccccc12 (centres unmarked) [Example 70B, 3-Ethoxycarbonyl-5-methoxycarbonyl-6-methyl-2-{2-[4-(N-methylcarbamoyl)piperazin-1-yl]ethoxymethyl}4-(1-naphthyl)-1,4-dihydropyridine hydrate] |
| 8.20 | CCOC(=O)C1=C(COCCN2CCN(C(=S)NC)CC2)NC(C)=C(C(=O)OC)C1c1ccccc1Cl (centres unmarked) [Example 10, 4-(2-chlorophenyl)-3-ethoxycarbonyl-5-methoxy-carbonyl-6-methyl-2-[2-(4-(N-methylthiocarbamoyl)-piperazin-1-yl)ethoxymethyl]-1,4-dihydropyridine, hydrochloride salt] |
| 8.62 | CCOC(=O)C1=C(COCCN2CCN(C(=O)NC(C)C)CC2)NC(C)=C(C(=O)OC)C1c1ccccc1Cl (centres unmarked) [Example 22] |
| 7.84 | CCOC(=O)C1=C(COCCN2CCN(C(=O)Nc3cccnc3)CC2)NC(C)=C(C(=O)OC)C1c1ccccc1Cl (centres unmarked) [Example 24] |
| 7.88 | CCOC(=O)C1=C(COCCN2CCN(C(=O)c3cccnc3)CC2)NC(C)=C(C(=O)OC)C1c1ccccc1Cl (centres unmarked) [Example 48] |
| 8.22 | CCOC(=O)C1=C(COCCN2CCN(C(=O)NC)CC2)NC(C)=C(C(=O)OC)C1c1ccccc1Cl (centres unmarked) [Example 13] |
